The values below come from patent US8604218B2, “Cytoskeletal active rho kinase inhibitor compounds, composition and use” (Inspire Pharmaceuticals, Inc., priority 2006, dated 2013).

SMILES strings stand for the structures.

The test has as its target ROCK2 (Homo sapiens (Human), UniProt O75116). Description: Rho Kinase Inhibition Assay (IMAP fluorescence polarization). The format is biochemical. The conditions noted are these: isolated enzyme, 10 μM ATP, 60 minutes at room temperature. How it is done: Following the preincubation, 10 μM ATP was added to initiate the reaction. After 60 minutes at room temperature, Molecular Devices IMAP™ binding solution was added to bind phosphorylated substrate. After 30 minutes of incubation in the presence of the IMAP™ beads the fluorescence polarization was read and the ratio was reported as mP. IC50 results were calculated using the Prism software from Graphpad.
See Tian et al., Arch. Ophthalmol. […] Ophthalmol. Vis. […] Ophthalmol. […] Cytoskel. […] Ophthalmol. Vis. […] Ophthalmol. Vis.
A general note: In fluorescence polarisation assays a small probe gives low polarisation when free and higher when bound to something large.

ROCK2, sequence (O75116 11-552): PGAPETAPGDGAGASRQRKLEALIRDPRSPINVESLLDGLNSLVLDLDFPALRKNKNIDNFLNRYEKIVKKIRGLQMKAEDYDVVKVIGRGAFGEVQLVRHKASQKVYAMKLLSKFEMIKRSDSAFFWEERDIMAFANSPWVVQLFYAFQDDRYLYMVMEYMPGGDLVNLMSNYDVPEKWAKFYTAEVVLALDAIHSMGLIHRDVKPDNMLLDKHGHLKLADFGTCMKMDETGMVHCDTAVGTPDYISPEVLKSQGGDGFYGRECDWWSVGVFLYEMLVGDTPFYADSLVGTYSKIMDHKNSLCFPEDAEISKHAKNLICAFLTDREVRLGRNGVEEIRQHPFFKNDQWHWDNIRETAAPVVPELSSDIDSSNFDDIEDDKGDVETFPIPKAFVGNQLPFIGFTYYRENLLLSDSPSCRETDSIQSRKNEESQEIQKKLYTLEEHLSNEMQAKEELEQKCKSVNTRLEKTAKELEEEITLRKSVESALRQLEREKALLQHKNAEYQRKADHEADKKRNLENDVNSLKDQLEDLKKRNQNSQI

By IC50 is commonly meant the concentration needed to halve the response being measured. A higher IC50 goes with weaker potency. Take `OCCOc1cccc(CN2CCC[C@@H](Nc3ccc4[nH]ncc4c3)C2)c1` [Compound 1.092, (R)-2-(3-((3-(1H-indazol-5-ylamino)piperidin-1-yl)methyl)phenoxy)ethanol]: the IC50 turned out to be 406 nM. The same measure for `OCCOc1cccc(CN2CCC[C@@H](Nc3cccc4cnccc34)C2)c1` [Compound 2.034, (R)-2-(3-((3-(isoquinolin-5-ylamino)piperidin-1-yl)methyl)phenoxy)ethanol]: 4010 nM. To `COc1ccc(CN2CCCC(Nc3cccc4cnccc34)C2)cc1` (stereo not drawn) [Compound 2.001, N-(1-(4-methoxybenzyl)piperidin-3-yl)isoquinolin-5-amine] belongs 98.8 nM. On to `c1cc(N[C@@H]2CCN(Cc3ccc(C4CC4)cc3)C2)c2ccncc2c1` [Compound 2.022, (R)-N-(1-(4-cyclopropylbenzyl)pyrrolidin-3-yl)isoquinolin-5-amine], for which the midpoint of inhibition, the IC50, lay at 311 nM. The same measure for `OCCn1ccc2ccc(CN3CCC[C@H](Nc4ccc5[nH]ncc5c4)C3)cc21` [Compound 1.109, (S)-2-(6-((3-(1H-indazol-5-ylamino)piperidin-1-yl)methyl)-1H-indol-1-yl)ethanol]: 242 nM; for `c1ccc(CN2CCC(Nc3cccc4cnccc34)C2)cc1` (stereo not drawn) [Compound 2.006, N-(1-benzylpyrrolidin-3-yl)isoquinolin-5-amine]: 73.9 nM; for `CC(=O)Nc1ccc(CN2CCCC(Nc3cccc4cnccc34)C2)cc1` (stereo not drawn) [Compound 2.004, N-(4-((3-(isoquinolin-5-ylamino)piperidin-1-yl)methyl)phenyl)acetamide]: 3710 nM. For `c1cc2cc(CN3CCCC(Nc4ccc5[nH]ncc5c4)C3)ccc2s1` (stereo not drawn) [Compound 1.054, N-(1-(benzo[b]thiophen-5-ylmethyl)piperidin-3-yl)-1H-indazol-5-amine], the IC50 amounted to 132 nM. Compound `Fc1ccc(CN2CCC[C@@H](Nc3ccc4[nH]ncc4c3)C2)cc1F` [Compound 1.073, (R)-N-(1-(3,4-difluorobenzyl)piperidin-3-yl)-1H-indazol-5-amine] had an IC50 of 111 nM. In turn, `CS(=O)(=O)Cc1ccc(CN2CCCC(Nc3ccc4[nH]ncc4c3)C2)cc1` (stereo not drawn) [Compound 1.029, N-(1-(4-(methylsulfonylmethyl)benzyl)piperidin-3-yl)-1H-indazol-5-amine] returned an IC50 of 11700 nM. `C(#CC1CC1)c1ccc(CN2CCCC(Nc3ccc4[nH]ncc4c3)C2)cc1` (stereo not drawn) [Compound 1.044, N-(1-(4-(cyclopropylethynyl)benzyl)piperidin-3-yl)-1H-indazol-5-amine] came in with a 50% inhibitory concentration (IC50) of 6510 nM.

For `CS(=O)(=O)Nc1cccc(CN2CCCC(Nc3ccc4[nH]ncc4c3)C2)c1` (stereo not drawn) [Compound 1.051, N-(3-((3-(1H-indazol-5-ylamino)piperidin-1-yl)methyl)phenyl)methanesulfonamide], the IC50 was determined as 62.6 nM. To `c1cc(CN2CCCC(Nc3ccc4[nH]ncc4c3)C2)cc(C2CC2)c1` (stereo not drawn) [Compound 1.021, N-(1-(3-cyclopropylbenzyl)piperidin-3-yl)-1H-indazol-5-amine] belongs 553 nM; to `Clc1ccc(CN2CC[C@@H](Nc3cccc4cnccc34)C2)cc1` [Compound 2.027, (R)-N-(1-(4-chlorobenzyl)pyrrolidin-3-yl)isoquinolin-5-amine], 120 nM. Compound `Clc1ccc(CN2CCC[C@H](Nc3ccc4[nH]ncc4c3)C2)cc1Cl` [Compound 1.080, (S)-N-(1-(3,4-dichlorobenzyl)piperidin-3-yl)-1H-indazol-5-amine] registered an IC50 of 162 nM.

With `Cc1ccc(CN2CCCC(Nc3ccc4[nH]ncc4c3)C2)cc1OCCO` (stereo not drawn) [Compound 1.058, 2-(5-((3-(1H-indazol-5-ylamino)piperidin-1-yl)methyl)-2-methylphenoxy)ethanol], half-maximal inhibition (IC50) was put at 47.5 nM. To `CS(=O)(=O)Nc1cccc(CN2CCC[C@H](Nc3ccc4[nH]ncc4c3)C2)c1` [Compound 1.091, (S)-N-(3-((3-(1H-indazol-5-ylamino)piperidin-1-yl)methyl)phenyl)methanesulfonamide] belongs 49.4 nM; to `c1cc(CN2CC[C@H](Nc3cccc4cnccc34)C2)cc(C2CC2)c1` [Compound 2.023, (S)-N-(1-(3-cyclopropylbenzyl)pyrrolidin-3-yl)isoquinolin-5-amine], 15700 nM. To `CSc1cccc(CN2CCCC(Nc3ccc4[nH]ncc4c3)C2)c1` (stereo not drawn) [Compound 1.040, N-(1-(3-(methylthio)benzyl)piperidin-3-yl)-1H-indazol-5-amine] belongs 144 nM; to `C=Cc1ccc(CN2CCCC(Nc3ccc4[nH]ncc4c3)C2)cc1` (stereo not drawn) [Compound 1.037, N-(1-(4-vinylbenzyl)piperidin-3-yl)-1H-indazol-5-amine], 69.5 nM. To `OCCCOc1cccc(CN2CCCC(Nc3ccc4[nH]ncc4c3)C2)c1` (stereo not drawn) [Compound 1.084, 3-(3-((3-(1H-indazol-5-ylamino)piperidin-1-yl)methyl)phenoxy)propan-1-ol] belongs 274 nM; to `OCCn1ccc2ccc(CN3CCCC(Nc4ccc5[nH]ncc5c4)C3)cc21` (stereo not drawn) [Compound 1.101, 2-(6-((3-(1H-indazol-5-ylamino)piperidin-1-yl)methyl)-1H-indol-1-yl)ethanol], 68.5 nM; to `Oc1cccc(CN2CCCC(Nc3ccc4[nH]ncc4c3)C2)c1` (stereo not drawn) [Compound 1.046, 3-((3-(1H-indazol-5-ylamino)piperidin-1-yl)methyl)phenol], 156 nM.

As for `CCc1ccc(CN2CCCC(Nc3ccc4[nH]ncc4c3)C2)cc1` (stereo not drawn) [Compound 1.033, N-(1-(4-ethylbenzyl)piperidin-3-yl)-1H-indazol-5-amine], the IC50 was 86.9 nM. To `CC(C)c1ccc(CN2CCCC(Nc3ccc4[nH]ncc4c3)C2)cc1` (stereo not drawn) [Compound 1.023, N-(1-(4-isopropylbenzyl)piperidin-3-yl)-1H-indazol-5-amine] belongs 334 nM; to `OCC#Cc1ccc(CN2CCCC(Nc3ccc4[nH]ncc4c3)C2)cc1` (stereo not drawn) [Compound 1.042, 3-(4-((3-(1H-indazol-5-ylamino)piperidin-1-yl)methyl)phenyl)prop-2-yn-1-ol], 4400 nM; to `c1cc2cc(CN3CCCC(Nc4ccc5[nH]ncc5c4)C3)ccc2o1` (stereo not drawn) [Compound 1.052, N-(1-(benzofuran-5-ylmethyl)piperidin-3-yl)-1H-indazol-5-amine], 15.3 nM.

For `CS(=O)(=O)c1ccc(CN2CCCC(Nc3ccc4[nH]ncc4c3)C2)cc1` (stereo not drawn) [Compound 1.001, N-(1-(4-(methylsulfonyl)benzyl)piperidin-3-yl)-1H-indazol-5-amine], the midpoint of inhibition, the IC50, lay at 358 nM. To `CCS(=O)(=O)Nc1cccc(CN2CCC[C@@H](Nc3ccc4[nH]ncc4c3)C2)c1` [Compound 1.123, (R)-N-(3-((3-(1H-indazol-5-ylamino)piperidin-1-yl)methyl)phenyl)ethanesulfonamide] belongs 135 nM; to `OCCOc1cccc(CN2CCC[C@H](Nc3ccc4[nH]ncc4c3)C2)c1` [Compound 1.090, (S)-2-(3-((3-(1H-indazol-5-ylamino)piperidin-1-yl)methyl)phenoxy)ethanol], 354 nM; to `Clc1ccc(CN2CCC[C@H](Nc3ccc4[nH]ncc4c3)C2)cc1` [Compound 1.081, (S)-N-(1-(4-chlorobenzyl)piperidin-3-yl)-1H-indazol-5-amine], 30.1 nM.

`COc1ccc(CN2CCC[C@H](Nc3ccc4[nH]ncc4c3)C2)cc1` [Compound 1.079, (S)-N-(1-(4-methoxybenzyl)piperidin-3-yl)-1H-indazol-5-amine] gave a 50% inhibitory concentration (IC50) of 102 nM. The same measure for `c1cc(N2CCOCC2)ccc1CN1CCCC(Nc2ccc3[nH]ncc3c2)C1` (stereo not drawn) [Compound 1.012, N-(1-(4-morpholinobenzyl)piperidin-3-yl)-1H-indazol-5-amine]: 12200 nM; for `c1ccc(CN2CCCC(Nc3ccc4[nH]ncc4c3)CC2)cc1` (stereo not drawn) [Compound 1.031, N-(1-benzylazepan-4-yl)-1H-indazol-5-amine]: 1750 nM. To `Brc1cccc(CN2CCCC(Nc3ccc4[nH]ncc4c3)C2)c1` (stereo not drawn) [Compound 1.045, N-(1-(3-bromobenzyl)piperidin-3-yl)-1H-indazol-5-amine] belongs 586 nM; to `N#Cc1cccc(CN2CCC(Nc3cccc4cnccc34)C2)c1` (stereo not drawn) [Compound 2.007, 3-((3-(isoquinolin-5-ylamino)pyrrolidin-1-yl)methyl)benzonitrile], 3620 nM; to `CS(=O)(=O)Nc1cccc(CN2CC[C@H](Nc3ccc4[nH]ncc4c3)C2)c1` [Compound 1.095, (S)-N-(3-((3-(1H-indazol-5-ylamino)pyrrolidin-1-yl)methyl)phenyl)methanesulfonamide], 647 nM.

The compound `OCc1ccc(CN2CCCC(Nc3ccc4[nH]ncc4c3)C2)cc1` (stereo not drawn) [Compound 1.025, (4-((3-(1H-indazol-5-ylamino)piperidin-1-yl)methyl)phenyl)methanol] showed an IC50 of 588 nM. For `CSc1ccc(CN2CCCC(Nc3cccc4cnccc34)C2)cc1` (stereo not drawn) [Compound 2.009, N-(1-(4-(methylthio)benzyl)piperidin-3-yl)isoquinolin-5-amine], the midpoint of inhibition, the IC50, lay at 368 nM. The same measure for `NCc1ccc(CN2CCCC(Nc3ccc4[nH]ncc4c3)C2)cc1` (stereo not drawn) [Compound 1.035, N-(1-(4-(aminomethyl)benzyl)piperidin-3-yl)-1H-indazol-5-amine]: 208 nM; for `c1cc(N[C@H]2CCN(Cc3ccc(SC4CC4)cc3)C2)c2ccncc2c1` [Compound 2.024, (S)-N-(1-(4-(cyclopropylthio)benzyl)pyrrolidin-3-yl)isoquinolin-5-amine]: 8920 nM. As to `CSc1ccc(CN2CCC[C@H](Nc3ccc4[nH]ncc4c3)C2)cc1` [Compound 1.075, (S)-N-(1-(4-(methylthio)benzyl)piperidin-3-yl)-1H-indazol-5-amine], the IC50 was found to be 74.5 nM.
